Calls of active or inactive are those of the source. The calls are words filed in the database; no cut-off is given here.
How the values were obtained:
[1] = test system: PANC-1; experiment: Induction of apoptosis in human PANC-1 cells assessed as late apototic cells at 2.50 uM incubated for 24 hrs by annexinV-FITC and PI staining based flow cytometry analysis (reference value: 5.71 %); type: functional; settings: dose 2.5 µM
[2] = test system: PANC-1; experiment: Induction of apoptosis in human PANC-1 cells assessed as late apototic cells at 5 uM incubated for 24 hrs by annexinV-FITC and PI staining based flow cytometry analysis (reference value: 5.71 %); type: functional
[3] = test system: PANC-1; experiment: Induction of apoptosis in human PANC-1 cells assessed as necrotic cells at 1.25 uM incubated for 24 hrs by annexinV-FITC and PI staining based flow cytometry analysis (reference value: 0.14 %); type: functional
[4] = test system: PANC-1; experiment: Induction of apoptosis in human PANC-1 cells assessed as necrotic cells at 2.50 uM incubated for 24 hrs by annexinV-FITC and PI staining based flow cytometry analysis (reference value: 0.14 %); type: functional; settings: dose 2.5 µM
[5] = test system: PANC-1; experiment: Induction of apoptosis in human PANC-1 cells assessed as necrotic cells at 5 uM incubated for 24 hrs by annexinV-FITC and PI staining based flow cytometry analysis (reference value: 0.14 %); type: functional
[6] = test system: ASPC1; experiment: Induction of apoptosis in human ASPC1 cells assessed as increase in cleaved caspase 3 level incubated for 24 hrs by Western blot analysis; type: functional, cell-based; settings: dose 1.25-5 µM, DDE = dose-dependent effect
[7] = test system: PANC-1; experiment: Induction of apoptosis in human PANC-1 cells assessed as increase in cleaved caspase 3 level incubated for 24 hrs by Western blot analysis; type: functional, cell-based; settings: dose 1.25-5 µM, DDE = dose-dependent effect
[8] = test system: ASPC1; experiment: Induction of apoptosis in human ASPC1 cells assessed as increase in cleaved caspase 9 level incubated for 24 hrs by Western blot analysis; type: functional, cell-based; settings: dose 1.25-5 µM, DDE = dose-dependent effect
[9] = test system: PANC-1; experiment: Induction of apoptosis in human PANC-1 cells assessed as increase in cleaved caspase 9 level incubated for 24 hrs by Western blot analysis; type: functional, cell-based; settings: dose 1.25-5 µM, DDE = dose-dependent effect
[10] = test system: ASPC1; experiment: Induction of apoptosis in human ASPC1 cells assessed as increase in PARP level incubated for 24 hrs by Western blot analysis; type: functional, cell-based; settings: dose 1.25-5 µM, DDE = dose-dependent effect
[11] = test system: PANC-1; experiment: Induction of apoptosis in human PANC-1 cells assessed as increase in PARP level incubated for 24 hrs by Western blot analysis; type: functional, cell-based; settings: dose 1.25-5 µM, DDE = dose-dependent effect
[12] = test system: ASPC1; experiment: Downregulation of survivin level in human ASPC1 cells upto 5 uM incubated for 24 hrs by Western blot analysis; type: functional, cell-based
[13] = test system: PANC-1; experiment: Downregulation of survivin level in human PANC-1 cells upto 5 uM incubated for 24 hrs by Western blot analysis; type: functional, cell-based
[14] = test system: ASPC1; experiment: Downregulation of Bcl-2 level in human ASPC1 cells upto 5 uM incubated for 24 hrs by Western blot analysis; type: functional, cell-based
[15] = test system: PANC-1; experiment: Downregulation of Bcl-2 level in human PANC-1 cells upto 5 uM incubated for 24 hrs by Western blot analysis; type: functional, cell-based
[16] = test system: ASPC1; experiment: Induction of apoptosis in human ASPC1 cells assessed as suppression of XIAP expression at upto 5 uM incubated for 24 hrs by Western blot analysis; type: functional, cell-based
[17] = test system: PANC-1; experiment: Induction of apoptosis in human PANC-1 cells assessed as suppression of XIAP expression at upto 5 uM incubated for 24 hrs by Western blot analysis; type: functional, cell-based
[18] = test system: ASPC1; experiment: Induction of apoptosis in human ASPC1 cells assessed as increase in caspase 3 enzymatic activity upto 5 uM incubated for 24 hrs by Western blot analysis; type: functional, cell-based
[19] = test system: PANC-1; experiment: Induction of apoptosis in human PANC-1 cells assessed as increase in caspase 3 enzymatic activity upto 5 uM incubated for 24 hrs by Western blot analysis; type: functional, cell-based
[20] = test system: ASPC1; experiment: Inhibition of cell migration in human ASPC1 cells at 0.94 to 3.75 uM incubated for 24 hrs by wound healing assay; type: functional, cell-based; settings: dose 0.94-3.75 µM
[21] = test system: PANC-1; experiment: Inhibition of cell migration in human PANC-1 cells at 0.94 to 3.75 uM incubated for 24 hrs by wound healing assay; type: functional, cell-based; settings: dose 0.94-3.75 µM
[22] = test system: ASPC1; experiment: Antiinvasive activity in human ASPC1 cells assessed as decrease in cell invasion at 0.94 to 3.75 uM incubated for 24 hrs by crystal violet staining based transwell assay; type: functional; settings: dose 0.94-3.75 µM
[23] = test system: ASPC1; experiment: Cytotoxicity against human ASPC1 cells assessed as reduction in cell viability at 5 uM incubated for 24 hrs in presence of gemcitabine by SRB assay; type: functional, cell-based
[24] = test system: PANC-1; experiment: Cytotoxicity against human PANC-1 cells assessed as reduction in cell viability at 5 uM incubated for 24 hrs in presence of gemcitabine by SRB assay; type: functional, cell-based
[25] = test system: ASPC1; experiment: Upregulation of cleaved caspase 3 expression in human ASPC1 cells incubated for 24 hrs in presence of gemcitabine by Western blot analysis; type: functional, cell-based
[26] = test system: PANC-1; experiment: Upregulation of cleaved caspase 3 expression in human PANC-1 cells incubated for 24 hrs in presence of gemcitabine by Western blot analysis; type: functional, cell-based
[27] = test system: PANC-1; experiment: Upregulation of PARP expression in human PANC-1 cells incubated for 24 hrs in presence of gemcitabine by Western blot analysis; type: functional, cell-based
[28] = test system: ASPC1; experiment: Cytotoxicity against human ASPC1 cells assessed as inhibition of cell proliferation incubated for 24 to 72 hrs by SRB assay; type: functional, cell-based; settings: dose 0.94-30 µM, time 24-72 hrs, DDE = dose-dependent effect
[29] = test system: PANC-1; experiment: Cytotoxicity against human PANC-1 cells assessed as inhibition of cell proliferation incubated for 24 to 72 hrs by SRB assay; type: functional, cell-based; settings: dose 0.94-30 µM, time 24-72 hrs, DDE = dose-dependent effect
[30] = molecular target: Epidermal growth factor receptor (Homo sapiens) (UniProt P00533); experiment: Inhibition of EGFR expression in human ASPC1 cells upto 5 uM incubated for 24 hrs by Western blot analysis; type: cell-based
Chain of Epidermal growth factor receptor (Homo sapiens) (P00533 whole entry): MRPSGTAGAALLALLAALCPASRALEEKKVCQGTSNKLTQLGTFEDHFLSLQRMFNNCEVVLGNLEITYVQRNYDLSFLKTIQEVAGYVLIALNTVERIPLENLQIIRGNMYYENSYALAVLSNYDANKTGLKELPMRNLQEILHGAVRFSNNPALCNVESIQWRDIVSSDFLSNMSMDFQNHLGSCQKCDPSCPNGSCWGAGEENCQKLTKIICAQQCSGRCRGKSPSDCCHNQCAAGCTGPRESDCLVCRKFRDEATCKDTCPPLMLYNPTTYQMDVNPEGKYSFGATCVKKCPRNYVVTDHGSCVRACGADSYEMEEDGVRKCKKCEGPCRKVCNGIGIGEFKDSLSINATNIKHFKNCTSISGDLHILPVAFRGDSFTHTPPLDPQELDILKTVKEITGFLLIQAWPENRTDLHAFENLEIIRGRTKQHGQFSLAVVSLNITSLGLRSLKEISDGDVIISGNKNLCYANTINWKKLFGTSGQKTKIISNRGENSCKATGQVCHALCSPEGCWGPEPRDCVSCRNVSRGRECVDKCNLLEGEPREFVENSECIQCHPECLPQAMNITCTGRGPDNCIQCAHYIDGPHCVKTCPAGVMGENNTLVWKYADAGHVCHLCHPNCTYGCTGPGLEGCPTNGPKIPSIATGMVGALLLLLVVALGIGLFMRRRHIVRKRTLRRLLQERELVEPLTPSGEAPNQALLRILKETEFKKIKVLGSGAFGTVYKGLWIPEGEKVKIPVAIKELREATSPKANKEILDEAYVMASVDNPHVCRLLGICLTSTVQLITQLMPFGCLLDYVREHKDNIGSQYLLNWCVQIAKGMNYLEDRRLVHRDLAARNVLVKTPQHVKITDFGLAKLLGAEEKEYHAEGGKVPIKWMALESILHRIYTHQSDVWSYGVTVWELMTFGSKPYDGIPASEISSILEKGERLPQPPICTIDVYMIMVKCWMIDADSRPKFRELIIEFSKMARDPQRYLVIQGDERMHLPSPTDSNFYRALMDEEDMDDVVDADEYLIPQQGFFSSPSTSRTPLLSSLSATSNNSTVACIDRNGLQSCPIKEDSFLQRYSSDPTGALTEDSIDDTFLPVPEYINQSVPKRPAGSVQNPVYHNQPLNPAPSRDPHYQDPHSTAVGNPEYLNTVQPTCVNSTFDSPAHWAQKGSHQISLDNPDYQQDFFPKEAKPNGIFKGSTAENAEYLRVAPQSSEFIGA

[31] = molecular target: Epidermal growth factor receptor (Homo sapiens) (UniProt P00533); experiment: Inhibition of EGFR expression in human PANC-1 cells upto 5 uM incubated for 24 hrs by Western blot analysis; type: cell-based

## COC(=O)CCCCCCC/C=C/C(=O)OC[C@@]1(C)CCC[C@@]2(C)[C@H]1[C@H](OC(=O)c1ccc([N+](=O)[O-])cc1)C=C1C(=O)OC[C@@]12O
[1]
  Activity: 13.6%
[2]
  Activity: 23.1%
[3]
  Activity: 0.22%
[4]
  Activity: 0.25%
[5]
  Activity: 0.11%
[6]
  Activity: Dde
[7]
  Activity: Dde
[8]
  Activity: Dde
[9]
  Activity: Dde
[10]
  Activity: Dde
[11]
  Activity: Dde
[12]
  Activity: Active
[13]
  Activity: Active
[14]
  Activity: Active
[15]
  Activity: Active
[16]
  Activity: Active
[17]
  Activity: Active
[18]
  Activity: Active
[19]
  Activity: Active
[20]
  inhibition: Active
[21]
  inhibition: Active
[22]
  Activity: Active
[23]
  Activity: Active
[24]
  Activity: Active
[25]
  Activity: Active
[26]
  Activity: Active
[27]
  Activity: Active
[28]
  Activity: Dde
[29]
  Activity: Dde
[30]
  inhibition: Active
[31]
  inhibition: Active

From ChEMBL document CHEMBL5120812, “Cytotoxic Nitrobenzoyl Sesquiterpenoids from an Antarctica Sponge-Derived Aspergillus insulicola” (J Nat Prod, 2022)
